Where two headings read alike, the source gives them in different places.
Test system: 280 human cancer cell lines
Assay: OncoPanel cell proliferation assay (10-day)
Type: cell-based
Details: Homo sapiens; for EC50: read-out: Cell Count EC50; for GI50: read-out: Cell Count GI50; for IC50: read-out: Cell Count IC50
[1] = Caov-3, CaOV3, Female GU - Ovary
[2] = ChaGo-K-1, ChaGoK1, Lung - NSCLC
[3] = D341 Med, CNS - Medulloblastoma
[4] = Detroit 562, Detroit 562, Head and Neck
[5] = DoTc2-4510, DoTc2 4510, Lymphoma
[6] = G292, G-292, clone A141B1, Soft Tissue - Osteosarcoma
[7] = HEL 92.1.7, HEL-92-1-7, Leukemia
[8] = HOS, Soft Tissue - Osteosarcoma
[9] = HT-1080, HT-1080, Soft Tissue - Sarcoma
[10] = HUH-6-clone5, HUH-6 Clone 5, Liver
[11] = Hs 821.T, Soft Tissue - Sarcoma
[12] = Hs 888.Sk, Soft Tissue - Osteosarcoma

CC(C)=CCC[C@@H]1C(O)Oc2c(C)cc(O)c3c2[C@H]1CC[C@H]3C (stereo partly shown) [Compound 2, 5,18-epoxyserrulat-14-en-8,18-diol]
EC50 [1]: 10.2 µM | GI50 [1]: 9.61 µM | IC50 [1]: 10.2 µM | EC50 (Capan-2, Capan-2, Pancreas): 8.64 µM | GI50 (Capan-2, Capan-2, Pancreas): 8.48 µM | IC50 (Capan-2, Capan-2, Pancreas): 8.64 µM | EC50 [2]: 8.32 µM | GI50 [2]: 8.26 µM | IC50 [2]: 8.32 µM | EC50 [3]: 19.2 µM | GI50 [3]: 18.7 µM | IC50 [3]: 19.2 µM | EC50 (DB, Lymphoma): 3.23 µM | GI50 (DB, Lymphoma): 3.24 µM | IC50 (DB, Lymphoma): 3.25 µM | EC50 (DBTRG-05MG, CNS - Glioma): 12.2 µM | GI50 (DBTRG-05MG, CNS - Glioma): 12.8 µM | IC50 (DBTRG-05MG, CNS - Glioma): 13 µM | EC50 (DK-MG, CNS - Glioma): 1.64 µM | GI50 (DK-MG, CNS - Glioma): > 30 µM | IC50 (DK-MG, CNS - Glioma): > 30 µM | EC50 (DLD-1, DLD-1, Colon): 10.7 µM | GI50 (DLD-1, DLD-1, Colon): 11.2 µM | IC50 (DLD-1, DLD-1, Colon): 11.2 µM | EC50 (DMS-53, DMS53, Lung - SCLC): 5.91 µM | GI50 (DMS-53, DMS53, Lung - SCLC): 5.75 µM | IC50 (DMS-53, DMS53, Lung - SCLC): 5.95 µM | EC50 (DMS-114, DMS114, Lung - SCLC): 11.5 µM | GI50 (DMS-114, DMS114, Lung - SCLC): 13.1 µM | IC50 (DMS-114, DMS114, Lung - SCLC): 13.8 µM | EC50 (DOHH-2, DOHH-2, Lymphoma): 3.24 µM | GI50 (DOHH-2, DOHH-2, Lymphoma): 3.24 µM | IC50 (DOHH-2, DOHH-2, Lymphoma): 3.24 µM | EC50 (DU-145, DU145, Prostate): 21 µM | GI50 (DU-145, DU145, Prostate): 20.7 µM | IC50 (DU-145, DU145, Prostate): 21 µM | EC50 (Daoy, CNS - Medulloblastoma): 8.64 µM | GI50 (Daoy, CNS - Medulloblastoma): 8.64 µM | IC50 (Daoy, CNS - Medulloblastoma): 8.65 µM | EC50 (Daudi, Lymphoma): 3.93 µM | GI50 (Daudi, Lymphoma): 3.92 µM | IC50 (Daudi, Lymphoma): 3.93 µM | EC50 [4]: 14.5 µM | GI50 [4]: 14.4 µM | IC50 [4]: 14.5 µM | EC50 [5]: 6.07 µM | GI50 [5]: 5.84 µM | IC50 [5]: 6.07 µM | EC50 (EB2, Lymphoma): 23.3 µM | GI50 (EB2, Lymphoma): 23 µM | IC50 (EB2, Lymphoma): 23.3 µM | EC50 (EB-3, Lymphoma): 9.72 µM | GI50 (EB-3, Lymphoma): 9.71 µM | IC50 (EB-3, Lymphoma): 9.72 µM | EC50 (EFM-19, EFM-19, Breast): 11.2 µM | GI50 (EFM-19, EFM-19, Breast): 10.6 µM | IC50 (EFM-19, EFM-19, Breast): 11.2 µM | EC50 (EM-2, Leukemia): 10.8 µM | GI50 (EM-2, Leukemia): 10.8 µM | IC50 (EM-2, Leukemia): 10.8 µM | EC50 (FaDu, Head and Neck): 8.66 µM | GI50 (FaDu, Head and Neck): 8.66 µM | IC50 (FaDu, Head and Neck): 8.66 µM | EC50 [6]: 8.8 µM | GI50 [6]: 8.57 µM | IC50 [6]: 8.8 µM | EC50 (G-361, G-361, Skin (Melanoma)): 11.7 µM | GI50 (G-361, G-361, Skin (Melanoma)): 11.8 µM | IC50 (G-361, G-361, Skin (Melanoma)): 11.8 µM | EC50 (G-401, G-401, Kidney): 26 µM | GI50 (G-401, G-401, Kidney): 26.2 µM | IC50 (G-401, G-401, Kidney): 26.2 µM | EC50 (GA-10, GA-10, Lymphoma): 3.72 µM | GI50 (GA-10, GA-10, Lymphoma): 3.73 µM | IC50 (GA-10, GA-10, Lymphoma): 3.73 µM | EC50 (H4, CNS - Glioma): 3.06 µM | GI50 (H4, CNS - Glioma): > 30 µM | IC50 (H4, CNS - Glioma): > 30 µM | EC50 (HCT-15, HCT-15, Colon): 8.64 µM | GI50 (HCT-15, HCT-15, Colon): 9.48 µM | IC50 (HCT-15, HCT-15, Colon): 9.49 µM | EC50 (HCT-116, HCT-116, Colon): 6.68 µM | GI50 (HCT-116, HCT-116, Colon): 6.67 µM | IC50 (HCT-116, HCT-116, Colon): 6.68 µM | EC50 (HEC-1-A, Female GU - Uterus): 12.1 µM | GI50 (HEC-1-A, Female GU - Uterus): 12 µM | IC50 (HEC-1-A, Female GU - Uterus): 12.1 µM | EC50 [7]: 13.4 µM | GI50 [7]: 13.4 µM | IC50 [7]: 13.4 µM | EC50 (HLE, Liver): 10 µM | GI50 (HLE, Liver): 16 µM | IC50 (HLE, Liver): 16.4 µM | EC50 (HLF, Liver): 13.7 µM | GI50 (HLF, Liver): 15.6 µM | IC50 (HLF, Liver): 15.7 µM | EC50 (HMCB, Skin (Melanoma)): 6.68 µM | GI50 (HMCB, Skin (Melanoma)): 6.57 µM | IC50 (HMCB, Skin (Melanoma)): 6.68 µM | EC50 [8]: 4.82 µM | GI50 [8]: 4.81 µM | IC50 [8]: 4.82 µM | EC50 (HPAF-II, Pancreas): 9.46 µM | GI50 (HPAF-II, Pancreas): 9.6 µM | IC50 (HPAF-II, Pancreas): 9.62 µM | EC50 (HT1197, HT-1197, Bladder): 10.7 µM | GI50 (HT1197, HT-1197, Bladder): 10.3 µM | IC50 (HT1197, HT-1197, Bladder): 10.7 µM | EC50 (HT, Lymphoma): 6.51 µM | GI50 (HT, Lymphoma): 6.43 µM | IC50 (HT, Lymphoma): 6.51 µM | EC50 (HT-3, Female GU - Cervix): 17.6 µM | GI50 (HT-3, Female GU - Cervix): 18.6 µM | IC50 (HT-3, Female GU - Cervix): 19.3 µM | EC50 (HT-29, HT-29, Colon): 19.5 µM | GI50 (HT-29, HT-29, Colon): 19.4 µM | IC50 (HT-29, HT-29, Colon): 19.5 µM | EC50 [9]: 3.31 µM | GI50 [9]: 3.3 µM | IC50 [9]: 3.31 µM | EC50 (HT-1376, HT1376, Bladder): 4.71 µM | GI50 (HT-1376, HT1376, Bladder): 4.47 µM | IC50 (HT-1376, HT1376, Bladder): 4.71 µM | EC50 [10]: 15.5 µM | GI50 [10]: 15.3 µM | IC50 [10]: 15.5 µM | EC50 (HeLa, Female GU - Cervix): 16.6 µM | GI50 (HeLa, Female GU - Cervix): 16.5 µM | IC50 (HeLa, Female GU - Cervix): 16.6 µM | EC50 (HepG2, HepG2, Liver): 6.74 µM | GI50 (HepG2, HepG2, Liver): 6.86 µM | IC50 (HepG2, HepG2, Liver): 6.95 µM | EC50 (Hs 229.T, Lung - NSCLC): 29.3 µM | GI50 (Hs 229.T, Lung - NSCLC): 28.6 µM | IC50 (Hs 229.T, Lung - NSCLC): 29.8 µM | EC50 (Hs 294T, Skin (Melanoma)): 7.01 µM | GI50 (Hs 294T, Skin (Melanoma)): 6.72 µM | IC50 (Hs 294T, Skin (Melanoma)): 7.01 µM | EC50 (Hs 445, Hs 445, Lymphoma): 4.34 µM | GI50 (Hs 445, Hs 445, Lymphoma): 4.23 µM | IC50 (Hs 445, Hs 445, Lymphoma): 4.34 µM | EC50 (Hs 611.T, Lymphoma): 10.7 µM | GI50 (Hs 611.T, Lymphoma): 10.6 µM | IC50 (Hs 611.T, Lymphoma): 10.7 µM | EC50 (Hs 683, Hs 683, CNS - Glioma): 29.8 µM | GI50 (Hs 683, Hs 683, CNS - Glioma): 28.3 µM | IC50 (Hs 683, Hs 683, CNS - Glioma): 29.8 µM | EC50 (Hs 688(A).T, Skin (Melanoma)): 11.6 µM | GI50 (Hs 688(A).T, Skin (Melanoma)): 12.2 µM | IC50 (Hs 688(A).T, Skin (Melanoma)): 13.2 µM | EC50 (Hs746T, HS 746T, Stomach): > 30 µM | GI50 (Hs746T, HS 746T, Stomach): > 30 µM | IC50 (Hs746T, HS 746T, Stomach): > 30 µM | EC50 (Hs766T, Hs 766T, Pancreas): 28.4 µM | GI50 (Hs766T, Hs 766T, Pancreas): 26.2 µM | IC50 (Hs766T, Hs 766T, Pancreas): 28.4 µM | EC50 [11]: > 30 µM | GI50 [11]: 13.9 µM | IC50 [11]: > 30 µM | EC50 [12]: 28.3 µM | GI50 [12]: 27.9 µM | IC50 [12]: 28.5 µM | EC50 (Hs 934.T, Skin (Melanoma)): > 30 µM | GI50 (Hs 934.T, Skin (Melanoma)): 24.1 µM | IC50 (Hs 934.T, Skin (Melanoma)): > 30 µM | EC50 (Hs 936.T(C1), Skin (Melanoma)): 3.62 µM | GI50 (Hs 936.T(C1), Skin (Melanoma)): 3.74 µM | IC50 (Hs 936.T(C1), Skin (Melanoma)): 3.76 µM | EC50 (Hs-578T, Hs 578T, Breast): 28.7 µM | GI50 (Hs-578T, Hs 578T, Breast): 28.2 µM | IC50 (Hs-578T, Hs 578T, Breast): 28.7 µM | EC50 (HuCCT-1, HuCCT1, Liver): 22.6 µM | GI50 (HuCCT-1, HuCCT1, Liver): 22.6 µM | IC50 (HuCCT-1, HuCCT1, Liver): 22.6 µM | EC50 (HuP-T4, HuP-T4, Pancreas): > 30 µM | GI50 (HuP-T4, HuP-T4, Pancreas): > 30 µM | IC50 (HuP-T4, HuP-T4, Pancreas): > 30 µM | EC50 (J82, Bladder): 12.9 µM | GI50 (J82, Bladder): 12.7 µM | IC50 (J82, Bladder): 12.9 µM | EC50 (JAR, Placenta): > 30 µM | GI50 (JAR, Placenta): > 30 µM | IC50 (JAR, Placenta): > 30 µM | EC50 (JEG-3, JEG-3, Placenta): > 30 µM | GI50 (JEG-3, JEG-3, Placenta): > 30 µM | IC50 (JEG-3, JEG-3, Placenta): > 30 µM | EC50 (JIYOYE, Lymphoma): 17.8 µM | GI50 (JIYOYE, Lymphoma): 17.7 µM | IC50 (JIYOYE, Lymphoma): 17.8 µM | EC50 (JeKo-1, JeKo-1, Lymphoma): 4.48 µM | GI50 (JeKo-1, JeKo-1, Lymphoma): 4.47 µM | IC50 (JeKo-1, JeKo-1, Lymphoma): 4.48 µM | EC50 (Jurkat, Leukemia): 2.66 µM | GI50 (Jurkat, Leukemia): 2.65 µM | IC50 (Jurkat, Leukemia): 2.66 µM | EC50 (K562, K562, Leukemia): 10.2 µM | GI50 (K562, K562, Leukemia): 10.1 µM | IC50 (K562, K562, Leukemia): 10.2 µM | EC50 (KATO III, Stomach): 8.98 µM | GI50 (KATO III, Stomach): 16.6 µM | IC50 (KATO III, Stomach): 16.8 µM | EC50 (KHOS-240S, Soft Tissue - Osteosarcoma): 4.59 µM
